Consider 26 compounds from patent US20240092745A1, “DRUGS AND COMPOSITIONS FOR THE TREATMENT OF OCULAR DISORDERS” (Graybug Vision, Inc., priority 2017, published 2024).

Converted amounts (≈) assume the structure as drawn. “Also recorded” adds a separate entry of the source. Where a name gives a salt, the structure may show the parent alone. Read-outs that look alike come from different tables or passages of the source.

A short description of data set [1]: In vitro stability of prodrugs (degradation to parent, RP-HPLC). The class given is physicochemical. Conditions: for degradation kinetics / hydrolysis to parent, in words: PBS (pH 7) with 10% DMSO, RP-HPLC. As for the experimental part:
Prodrugs of interest were dissolved in PBS (pH 7) containing 10% DMSO (v/v) at a concentration of 0.1 mg/mL. The samples were incubated at 37° C. or 50° C. to simulate physiological and accelerated degradation conditions, respectively. At various time points, 500 μL of the solution was collected, filtered through a 0.2 μm nylon syringe filter and analyzed by RP-HPLC.
Timolol-Dorzolamide bi-functional prodrugs were dissolved in a mixture of DMSO and PBS and incubated at 37° C. The solution was aliquoted and analyzed by HPLC at pre-determined time points. Timolol-Dorzolamide bi-functional prodrugs were stable for about 3 hours as evidenced by the significant reduction of prodrug peaks in HPLC after 2-3 hours (FIG. 30A and FIG. 30B). Timolol parent drug was detected as the bi-functional prodrug degraded, whereas Dorzolamide appeared in the form of prodrugs, i.e., Dorzolamide linked with 1-3 PLA units.

The nature of data set [2]: Determination of drug solubility in aqueous and organic solvent.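 On all read-outs here: solid drug suspended at 50 mg/mL nominal in each solvent, vortexed and sonicated, then dissolved concentration in filtered supernatant quantified by HPLC against a calibration curve.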 Conditions: for solubility: thermodynamic from solid. The class given is physicochemical.
Procedure: For each test, approximately 5-10 mg was transferred to a 10 mL glass vial. Aqueous or organic solvent was added to each vial to achieve an overall concentration of 50 mg/mL. After vortexing aggressively for 2-3 minutes and sonicating in a bath sonicator for 5 minutes, undissolved drug was spun down at 1200 rpm for 5 minutes to generate a pellet. The supernatant was collected and filtered through a 0.2 μm nylon syringe filter into HPLC vials for drug content analysis. Drug concentration was determined by comparing against a standard calibration curve.
Setting [3] is: organic solvent or mixture, Table 3B, DMSO, read-out: Solubility DMSO.
[4] abbreviates: Table 3B, water, drug added to 50 mg/mL, read-out: Solubility Water.
Where [5] appears, read: organic solvent or mixture, Table 3A, DMSO, read-out: Solubility DMSO.
Where [6] appears, read: Table 3A, water, drug added to 50 mg/mL, read-out: Solubility Water.
Setting [7] is: Table 3B, water, drug added to 50 mg/mL.
[8] abbreviates: organic solvent or mixture, Table 3A, DCM, read-out: Solubility DCM.

Take `CCN[C@H]1C[C@H](C)S(=O)(=O)c2sc(S(=O)(=O)NC(=O)[C@H](C)OC(=O)[C@H](C)OC(=O)[C@H](C)OC(=O)CCCC(=O)O[C@@H](CNC(C)(C)C)COc3nsnc3N3CCOCC3)cc21` [Compound 64-4, Timolol-O-glutarate-PLA(n=3)-Dorzolamide maleate salt]: the “time in which prodrug cleaves to afford the active moieties” value in data set [1] (37° C.) is recorded as “less than 5 hours”.
The term solubility denotes how much of the substance goes into solution per volume. For `CCCCCCCCCCCCCCCCCC(=O)O[C@@H](C)C(=O)O[C@H](COc1nsnc1N1CCOCC1)CN(C(C)=O)C(C)(C)C` [Compound 65-1], the solubility was more than 100 mg/mL in data set [2] (setting [3]) and less than 1 mg/mL in data set [2] (setting [4]). The “degradation kinetics / hydrolysis to parent, in words” value (“degradation kinetics / hydrolysis” for short) in data set [1] (37° C.) was “resistant to hydrolysis and failed to release the parent over the course of the study; also recorded: resistant to hydrolysis”.
Take `CCCCC/C=C\C/C=C\CCCCCCCC(=O)O[C@@H](CNC(C)(C)C)COc1nsnc1N1CCOCC1.O=C(O)/C=C\C(=O)O` [Compound 70-1, Timolol-O-linoleic acid maleate]: the solubility in data set [2] (setting [3]) was more than 50 mg/mL; in data set [2] (setting [4]), less than 0.01 mg/mL. For the same compound, in data set [1] (37° C.), the “degradation kinetics / hydrolysis” value was “degraded steadily over the 4-day period, releasing parent Timolol in a linear rate; also recorded: steady generation of the parent Timolol”.
Take `CC/C=C\C/C=C\C/C=C\C/C=C\C/C=C\C/C=C\CCC(=O)NS(=O)(=O)c1cc2c(s1)S(=O)(=O)[C@@H](C)C[C@@H]2NCC` [Compound 80-3, (4S,6S)-4-Ethylamino-6-methyl-7,7-dioxo-4,5,6,7-tetrahydro-7lambda*6*-thieno[2,3-b]thiopyran-2-sulfonic acid ((4Z,7Z,10Z,13Z,16Z,19Z)-docosa-4,7,10,13,16,19-hexanoyl)-amide]: the solubility was more than 50 mg/mL in data set [2] (organic solvent or mixture, Table 3B, DCM, read-out: Solubility DCM); more than 100 mg/mL in data set [2] (setting [3]); less than 1 mg/mL in data set [2] (setting [4]).
As for `COc1cccc(CN(CCOC(=O)[C@H](C)OC(=O)[C@H](C)OC(=O)[C@H](C)OC(=O)[C@H](C)OC(C)=O)C(=O)Nc2ccc(-c3cn[nH]c3)cc2)c1` [Compound 88-3, SR5834-acetyl PLA(n=4)], the solubility in data set [2] (setting [3]) is more than 50 mg/mL.
In the case of `CC/C=C\C/C=C\C/C=C\C/C=C\C/C=C\C/C=C\CCC(=O)O[C@@H](C)C(=O)O[C@@H](C)C(=O)O[C@H](COc1nsnc1N1CCOCC1)CN(C(C)=O)C(C)(C)C` [Compound 102-1, N-acyl-Timolol-PLA (n=2)-DHA], the “degradation kinetics / hydrolysis” value in data set [1] (37° C.) was “steady generation of intermediate degradants and slow hydrolysis to the parent compound; also recorded: steady generation of the intermediate N-acyl-Timolol-PLA (n=1)-DHA and slow hydrolysis to parent Timolol”.
As for `CC(=O)O[C@@H](C)C(=O)O[C@@H](C)C(=O)O[C@@H](C)C(=O)O[C@@H](C)C(=O)O[C@@H](C)C(=O)O[C@@H](C)C(=O)O[C@@H](C)C(=O)O[C@@H](C)C(=O)N1CCN=C1Nc1ccc2nccnc2c1Br` [Compound 109-1, Brimonidine-acetyl PLA(n=8)], the solubility in data set [2] (setting [5]) was more than 50 mg/mL; in data set [2] (setting [6]) it was less than 0.1 mg/mL.
The like results for `CC(=O)O[C@@H](C)C(=O)O[C@@H](C)C(=O)N1CCN(C(=O)[C@H](C)OC(=O)[C@H](C)OC(C)=O)C1=Nc1ccc2nccnc2c1Br` [Compound 111-4, Brimonidine-bis-acetyl PLA(n=2)] were, in that order, more than 50 mg/mL and less than 1 mg/mL.
Turning to `COc1cccc(CN(CCOC(=O)[C@H](C)OC(=O)[C@H](C)OC(=O)[C@H](C)OC(=O)[C@H](C)OC(C)=O)C(=O)Nc2ccc(-c3cnn(C(=O)[C@H](C)OC(=O)[C@H](C)OC(=O)[C@H](C)OC(=O)[C@H](C)OC(C)=O)c3)cc2)c1` [Compound 113-1, SR5834-bis-acetyl PLA(n=4)], the figures for the solubility in data set [2] (setting [3]) and in data set [2] (setting [4]) were 50 mg/mL (≈ 48.7 mM) and less than 1 mg/mL, respectively.
As for `CC(=O)O[C@@H](C)C(=O)O[C@@H](C)C(=O)N1CCN(C(C)=O)C1=Nc1ccc2nccnc2c1Br` [Compound 114-4, Brimonidine-acetyl PLA(n=2)-N-Acetate], the solubility in data set [2] (setting [5]) is 100 mg/mL (≈ 192 mM); in data set [2] (setting [6]) it was 1 mg/mL (≈ 1.92 mM).
Consider `CC(=O)OC(C)C(=O)OC(C)C(=O)OC(C)C(=O)OC(C)C(=O)N1CCN(C(C)=O)C1=Nc1ccc2nccnc2c1Br` (stereo not drawn) [Compound 115-1, Brimonidine-acetyl PLA(n=4)-N-Acetate], for which the solubility in data set [2] (setting [5]) is 100 mg/mL (≈ 150 mM); in data set [2] (setting [6]), less than 0.2 mg/mL.
Turning to `CC(=O)O[C@@H](C)C(=O)O[C@@H](C)C(=O)O[C@@H](C)C(=O)O[C@@H](C)C(=O)N1CCN(C(=O)[C@H](C)OC(=O)[C@H](C)OC(=O)[C@H](C)OC(=O)[C@H](C)OC(C)=O)C1=Nc1ccc2nccnc2c1Br` [Compound 116-1, Brimonidine-bis-acetyl PLA(n=4)], in data set [2] (setting [5]), the solubility came to 100 mg/mL (≈ 105 mM).
In the case of `CCOC(=O)CCC(=O)O[C@H](COc1nsnc1N1CCOCC1)CN(C(=O)[C@H](C)OC(=O)[C@H](C)OC(C)=O)C(C)(C)C` [Compound 117-6, Timolol-bis-N-acetyl-PLA(n=2)-O-ethyl-succinate], the values for the solubility in data set [2] (setting [3]) and in data set [2] (setting [4]) were more than 50 mg/mL and less than 1 mg/mL, respectively. Moreover, the “polymer hydrolyzed to release free Timolol” value in data set [1] (by day 13, 37° C.) was “approximately 50%”.
As to `CC(=O)O[C@@H](C)C(=O)O[C@@H](C)C(=O)O[C@H](COc1nsnc1N1CCOCC1)CN(C(=O)[C@H](C)OC(=O)[C@H](C)OC(C)=O)C(C)(C)C` [Compound 118-1, Timolol-bis-N-acetyl-PLA(n=2)], the solubility in data set [2] (setting [3]) was more than 50 mg/mL; in data set [2] (setting [4]), less than 0.1 mg/mL. Besides, the “degradation kinetics / hydrolysis” value in data set [1] (37° C.) is “degraded slightly faster than a Timolol-bis-N-acetyl PLA(n=4) (119-6)”.
Take `CCOC(=O)CCC(=O)O[C@H](COc1nsnc1N1CCOCC1)CN(C(=O)[C@H](C)OC(=O)[C@H](C)OC(=O)[C@H](C)OC(=O)[C@H](C)OC(C)=O)C(C)(C)C` [Compound 120-1, Timolol-bis-N-acetyl-PLA(n=4)-O-ethyl succinate]: the solubility in data set [2] (setting [3]) was more than 50 mg/mL; in data set [2] (setting [4]) it was less than 1 mg/mL. The “degradation kinetics / hydrolysis” value in data set [1] (37° C.) was “degraded to free Timolol incompletely by day 13”.
On to `CC(=O)OC(C)C(=O)OC(C)C(=O)OC(C)C(=O)OC(C)C(=O)N(C[C@@H](COc1nsnc1N1CCOCC1)OC(=O)C(C)OC(=O)C(C)OC(C)=O)C(C)(C)C` (stereo partly drawn) [Compound 229, Timolol-bis-N-acetyl-PLA(n=4)-O-acetyl PLA(n=2)], for which the solubility in data set [2] (setting [3]) is more than 50 mg/mL; in data set [2] (setting [4]), less than 0.006 mg/mL.
For `CC(=O)OC(C)C(=O)OC(C)C(=O)OC(C)C(=O)OC(C)C(=O)O[C@H](COc1nsnc1N1CCOCC1)CN(C(=O)C(C)OC(=O)C(C)OC(C)=O)C(C)(C)C` (stereo partly drawn) [Compound 230, Timolol-bis-N-acetyl-PLA(n=2)-O-acetyl PLA(n=4)] the same measures were more than 50 mg/mL and less than 0.007 mg/mL.
`CCN[C@H]1C[C@H](C)S(=O)(=O)c2sc(S(N)(=O)=O)cc21` [Dorzolamide, reference compound]: the “Solubility DCM” value in data set [2] (Table 3B, DCM) is reported as less than 1.0 mg/mL. Moreover, the “Solubility DMSO” value in data set [2] (Table 3B, DMSO) was less than 1.0 mg/mL. Besides, the “Solubility Water” value in data set [2] (setting [7]) is more than 50 mg/mL. The solubility was less than 1 mg/mL in data set [2] (setting [8]), less than 1 mg/mL in data set [2] (setting [5]) and more than 50 mg/mL in data set [2] (setting [6]).
`CCN[C@H]1C[C@H](C)S(=O)(=O)c2sc(S(=O)(=O)NC(=O)[C@H](C)O)cc21` [Dorzolamide-PLA (n = 1), dorzolamide-PLA (n=1)]: in data set [2] (Table 3A, DMSO), the “Solubility DMSO” value is given as less than 1.0 mg/mL. Also, in data set [2] (Table 3A, water, drug added to 50 mg/mL), the “Solubility Water” value is on record as more than 50 mg/mL.
For `CC(C)OC(=O)CCC/C=C\C[C@@H]1[C@@H](CC[C@@H](O)CCc2ccccc2)[C@H](O)C[C@@H]1O` [Latanoprost, reference compound], the solubility in data set [2] (setting [8]) is more than 50 mg/mL; in data set [2] (setting [5]) it was more than 50 mg/mL; in data set [2] (setting [6]), less than 1 mg/mL.
In the case of `CCN(Cc1cccc(OC)c1)C(=O)Nc1ccc(-c2cn[nH]c2)cc1OCCN1CCCC1` [RKI-1y, 3-(4-(1H-pyrazol-4-yl)-2-(2-(pyrrolidin-1-yl)ethoxy)phenyl)-1-ethyl-1-(3-methoxybenzyl)urea, reference compound], the figures for the solubility in data set [2] (setting [3]) and in data set [2] (setting [4]) were more than 100 mg/mL and less than 1 mg/mL, respectively.
Turning to `COc1cccc(CN(CCO)C(=O)Nc2ccc(-c3cn[nH]c3)cc2OCCN2CCCC2)c1` [RKI-H-1y, 1-(2-hydroxyethyl)-1-[(3-methoxyphenyl)methyl]-3-[4-(1H-pyrazol-4-yl)-2-[2-(pyrrolidin-1-yl)ethoxy]phenyl]urea, reference compound], the solubility in data set [2] (setting [3]) was more than 100 mg/mL; in data set [2] (setting [4]), less than 1 mg/mL.
For `COc1cccc(CN(CCO)C(=O)Nc2ccc(-c3cn[nH]c3)cc2)c1` [SR5834, 1-(2-hydroxyethyl)-1-[(3-methoxyphenyl)methyl]-3-[4-(1H-pyrazol-4-yl)phenyl]urea, reference compound] the same measures were more than 100 mg/mL and less than 1 mg/mL.
In the case of Brinzolamide (n = 1), the “Solubility DCM” value in data set [2] (Table 3B, DCM) was more than 50 mg/mL. In addition, in data set [2] (Table 3B, DMSO), the “Solubility DMSO” value is reported as more than 50 mg/mL. Besides, the “Solubility Water” value in data set [2] (setting [7]) is given as more than 50 mg/mL.
Consider “N-acyl-Timolol-PLA (n = 2)-DHA [N-Acyl-Timolol-PLA (n = 2) DHA]”, for which the “Solubility DMSO” value in data set [2] (Table 3B, DMSO) was more than 100 mg/mL. The “Solubility Water” value in data set [2] (setting [7]) is recorded as less than 1.0 mg/mL.
On to “Timolol-Bis-Acetyl-PLA (n = 4) [Compound 119-1]”, for which the “Solubility DMSO” value in data set [2] (Table 3B, DMSO) is given as more than 50 mg/mL. In addition, the “Solubility Water” value in data set [2] (setting [7]) was less than 0.00005 mg/mL.
